Reference: article PMC8845043 (ACS Pharmacology & Translational Science, 2022)

Assays:
[1] = molecular target: hBChE from freshly collected human plasma (Homo sapiens, UniProt P06276); test: Ex vivo anticholinesterase activity; assay type: biochemical
[2] = human plasma, following a Posiphen 40 mg dose; cited from earlier work
[3] = molecular target: hAChE from freshly collected human erythrocytes (Homo sapiens, UniProt P22303); test: Ex vivo anticholinesterase activity; assay type: biochemical
hAChE from freshly collected human erythrocytes, sequence (P22303 32-617 isoform P22303-2 limits assumed): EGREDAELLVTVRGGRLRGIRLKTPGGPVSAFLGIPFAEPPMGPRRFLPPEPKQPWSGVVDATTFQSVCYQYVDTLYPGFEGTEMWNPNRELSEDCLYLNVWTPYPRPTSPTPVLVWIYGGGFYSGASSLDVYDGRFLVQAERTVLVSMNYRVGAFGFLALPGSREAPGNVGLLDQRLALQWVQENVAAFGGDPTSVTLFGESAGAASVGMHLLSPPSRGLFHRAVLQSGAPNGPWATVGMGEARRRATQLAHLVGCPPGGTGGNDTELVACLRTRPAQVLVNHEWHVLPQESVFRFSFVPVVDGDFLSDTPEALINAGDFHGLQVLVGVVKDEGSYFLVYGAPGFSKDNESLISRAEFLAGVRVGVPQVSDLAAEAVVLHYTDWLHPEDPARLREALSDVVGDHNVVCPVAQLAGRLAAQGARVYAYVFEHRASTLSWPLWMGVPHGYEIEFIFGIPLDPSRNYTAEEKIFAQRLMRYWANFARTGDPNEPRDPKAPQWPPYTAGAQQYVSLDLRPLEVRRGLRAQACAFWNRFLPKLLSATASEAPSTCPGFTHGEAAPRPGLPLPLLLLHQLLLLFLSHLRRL

hBChE from freshly collected human plasma, sequence (P06276 29-602): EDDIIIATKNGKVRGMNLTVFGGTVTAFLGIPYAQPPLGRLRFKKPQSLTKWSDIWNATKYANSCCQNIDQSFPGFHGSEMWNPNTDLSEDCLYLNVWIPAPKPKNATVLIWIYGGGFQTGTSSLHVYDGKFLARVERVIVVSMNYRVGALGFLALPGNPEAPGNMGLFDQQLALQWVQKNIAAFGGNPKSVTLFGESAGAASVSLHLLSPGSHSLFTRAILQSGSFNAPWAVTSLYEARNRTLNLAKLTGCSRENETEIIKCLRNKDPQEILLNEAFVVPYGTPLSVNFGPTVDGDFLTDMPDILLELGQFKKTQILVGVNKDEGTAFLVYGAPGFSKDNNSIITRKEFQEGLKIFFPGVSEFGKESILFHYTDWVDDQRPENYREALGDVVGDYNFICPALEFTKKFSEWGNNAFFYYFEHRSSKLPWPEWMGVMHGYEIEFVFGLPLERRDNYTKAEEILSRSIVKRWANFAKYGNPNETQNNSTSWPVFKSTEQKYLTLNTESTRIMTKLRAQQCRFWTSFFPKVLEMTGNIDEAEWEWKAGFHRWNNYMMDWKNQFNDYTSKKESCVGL

SMILES | IC50 [1] | plasma concentration CMax [2] | IC50 [3] | AChE inhibitory action (in words) ([3]; wet lab evaluation, human AChE)
CN1CC[C@@]2(C)c3cc(OC(=O)Nc4ccccc4)ccc3N(C)[C@@H]12 [Phenserine, reference compound] | 1.38 ± 0.24 µM | – | – | –
CN1CC[C@]2(C)c3cc(OC(=O)Nc4ccccc4)ccc3N(C)[C@H]12 [Posiphen] | > 10 µM | 118.5 ng/mL | > 10 µM | lacks AChE inhibitory action
